# Literature values as cited in patent US20120129178A1, “GENOMIC POLYMORPHISM FOR PREDICTING THERAPEUTIC RESPONSE” (University of Southern California, priority 1999, published 2012).
# Like-named read-outs stand apart in the source and are kept apart here.
# Columns and labels:
# [1] = tested on: patients with gastric cancer; settings: gastric cancer patients treated with 5-Fu
# [2] = tested on: patients with disseminated colon cancer; settings: 46 patients with disseminated colon cancer; TS mRNA levels higher than 4.1
smiles,measurement,setting,value
"O=c1[nH]cc(F)c(=O)[nH]1 [5-FU, 5-Fluorouracil]",median survival,[1]; TS mRNA levels >4.6,6 months
same,median survival,[1]; TS mRNA levels of 54.6 (so in the source),≥ 43 months
same,response to 5-FU based treatment,[2],No patient with TS mRNA levels higher than 4.1 responded to treatment
